The IC50 is the midpoint of a concentration-inhibition curve.

Assay [1] concerns the target T1, NPY Y2 receptor (Homo sapiens, UniProt P49146).
T1 construct: endogenous in cells; host or cells: KAN-Ts cells (membrane preparation)
T1 sequence (P49146 1-381): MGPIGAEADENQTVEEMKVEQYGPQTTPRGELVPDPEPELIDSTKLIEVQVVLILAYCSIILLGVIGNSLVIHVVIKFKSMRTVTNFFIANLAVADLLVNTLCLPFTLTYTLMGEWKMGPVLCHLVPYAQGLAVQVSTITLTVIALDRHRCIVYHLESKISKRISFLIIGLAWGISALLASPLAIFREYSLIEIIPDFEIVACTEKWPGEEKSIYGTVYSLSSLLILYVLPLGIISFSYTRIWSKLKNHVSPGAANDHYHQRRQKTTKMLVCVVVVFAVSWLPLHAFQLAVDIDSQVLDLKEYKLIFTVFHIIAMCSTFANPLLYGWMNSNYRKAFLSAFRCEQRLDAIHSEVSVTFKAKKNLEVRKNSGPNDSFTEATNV
In words: Neuropeptide Y2 radioligand binding assay ([125I]PYY, KAN-Ts cell membranes). The note with it: membranes of KAN-Ts cells endogenously expressing Y2 receptors; [125I]PYY 80 pM; 1 h at rt; read-out: IC50 (μM), NPY Y2 binding. The essentials: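 Membranes from KAN-Ts cells (endogenous Y2) incubated 1 h at rt with 80 pM [125I]PYY ± compound in HEPES/NaCl binding buffer, then filtered and counted. Nonspecific binding defined with […]. IC50 from sigmoidal fits; apparent K = IC50/(1+C/KD).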

Assay [2] addresses T1, NPY Y2 receptor. In words: Neuropeptide Y2 pKB assay (FLIPR, KAN-Ts cells stably expressing chimeric G proteins). The class given is cell-based. The note with it: apparent pKB, FLIPR calcium, KAN-Ts cells with chimeric G proteins; modified Cheng-Prusoff correction. The method, then: The assay was performed using the fluorimetric imaging plate reader (FLIPR) format as described in Dautzenberg, F. M., Biochemical Pharmacology 2005, 69, 1493.
KAN-Ts cells stably expressing chimeric G proteins were seeded at a density of 100,000 cells into poly-d-lysine coated 384-well blackwall, clear-bottom microtiter plates (Corning, N.Y.). One day later, the medium was removed and 50 μl loading medium DMEM high glucose, without serum, supplemented with 10 mM HEPES-acid, 0.1% BSA, 5 mM probenecid and 2 μM Fluo-3AM was added. Cells were loaded for 1 h at 37° C., washed twice with 50 μl assay buffer (5 mM HEPES-acid, 140 mM NaCl, 1 mM MgCl2, 5 mM KCl, 10 mM glucose) and then 30 μl assay buffer was added. Cells were further pre-incubated at room temperature before adding agonists or agonists plus antagonists in 20 μl assay buffer and then measured on a T-channel fluorometric imaging plate reader (FLIPR, Molecular Devices, Sunnyvale, Calif.). Antagonistic potency values were converted to apparent pKB values using a modified Cheng-Prusoff correction. Apparent pKB was calculated as pKB=−log IC50/1+[conc agonist/EC50].

Take `CCN(CC)C(=O)C(c1ccccc1)N1CCN(c2ccc(-c3noc(C)n3)cc2F)CC1` (centres unmarked) [Compound 67, N,N-Diethyl-2-{4-[2-fluoro-4-(5-methyl-[1,2,4]oxadiazol-3-yl)-phenyl]-piperazin-1-yl}-2-phenyl-acetamide]: the half-inhibitory concentration (IC50) in assay [1] was 0.18 µM. For the same compound, in assay [2], the Kb was 200 nM.
The matching figures for `CCN(CC)C(=O)C(c1ccccc1)N1CCN(c2ccc(-c3noc(C(C)C)n3)cc2F)CC1` (centres unmarked) [Compound 69, N,N-Diethyl-2-{4-[2-fluoro-4-(5-isopropyl-[1,2,4]oxadiazol-3-yl)-phenyl]-piperazin-1-yl}-2-phenyl-acetamide]: 0.13 µM and 50.1 nM.
The matching figures for `CCN(CC)C(=O)C(c1ccccc1)N1CCN(c2ccc(-c3nc(C)no3)cc2F)CC1` (centres unmarked) [Compound 119, N,N-Diethyl-2-{4-[2-fluoro-4-(3-methyl-[1,2,4]oxadiazol-5-yl)-phenyl]-piperazin-1-yl}-2-phenyl-acetamide]: 0.085 µM and 89.1 nM.
For `CCN(CC)C(=O)C(c1ccccc1)N1CCN(c2ccc(-c3nc(C)no3)cc2Br)CC1` (centres unmarked) [Compound 203, 2-{4-[2-Bromo-4-(3-methyl-[1,2,4]oxadiazol-5-yl)-phenyl]-piperazin-1-yl}-N,N-diethyl-2-phenyl-acetamide], in that order: 0.15 µM and 200 nM.
Regarding `CCN(CC)C(=O)C(c1ccccc1)N1CCN(c2ccc(-c3nc(C)no3)cc2C#N)CC1` (centres unmarked) [Compound 217, 2-{4-[2-Cyano-4-(3-methyl-[1,2,4]oxadiazol-5-yl)-phenyl]-piperazin-1-yl}-N,N-diethyl-2-phenyl-acetamide], the half-inhibitory concentration (IC50) in assay [1] turned out to be 0.023 µM. In assay [2], the Kb is 23.4 nM.
The matching figures for `CCN(CC)C(=O)C(c1ccccc1)N1CCN(c2ccc(-c3nc(C(C)C)no3)cc2C#N)CC1` (centres unmarked) [Compound 218, 2-{4-[2-Cyano-4-(3-isopropyl-[1,2,4]oxadiazol-5-yl)-phenyl]-piperazin-1-yl}-N,N-diethyl-2-phenyl-acetamide]: 0.011 µM and 12.6 nM.
Turning to `CCN(CC)C(=O)C(c1cccc(F)c1)N1CCN(c2ccc(-c3nc(C)no3)cc2C#N)CC1` (centres unmarked) [Compound 263, 2-{4-[2-Cyano-4-(3-methyl-[1,2,4]oxadiazol-5-yl)-phenyl]-piperazin-1-yl}-N,N-diethyl-2-(3-fluoro-phenyl)-acetamide], the IC50 in assay [1] came to 0.035 µM. The Kb in assay [2] was 20 nM.

The values are drawn from patent US20120015957A1, “PIPERAZINYL DERIVATIVES USEFUL AS MODULATORS OF THE NEUROPEPTIDE Y2 RECEPTOR” (priority 2007, published 2012).
